From publication PMC5761330 (ACS chemical biology, 2017)

Assays:
[1] = system: RCC111, TOV112D and ES-2 cells; assay: Phospho-histone H3 Western blot, Pax2 positive cancer cell lines; type: cell-based; settings: increasing amounts
[2] = system: 22Rv1, PC-3 and SK-OV-3 cells; assay: Phospho-histone H3 Western blot, Pax2 negative cancer cell lines; type: cell-based; settings: increasing amounts
E11.5 lung rudiments = assay: Embryonic lung organ culture, branching morphogenesis; design: species or system mouse; settings: 48 h, increasing concentrations
Pax2 = Pax2 (Mus musculus, UniProt P32114); assay: PRS4-EGFP reporter, Western blot of EGFP; type: cell-based; settings: PRS4-EGFP cells, increasing concentrations
[3] = system: 22Rv1, PC-3 and SK-OV-3 cells; assay: Cell viability; type: cell-based; settings: 48 h, 12.5 and 25 µM, Pax2 negative cells
Pax8 = Pax8 (Homo sapiens, UniProt Q06710); assay: PRS4-Luc reporter activation by Pax8 in HEK293 cells; type: cell-based; settings: dose response
E11.5 kidney rudiments = assay: Embryonic kidney organ culture, branching morphogenesis; design: species or system mouse; settings: 48 h, highest dose
[4] = system: BRE-Luc (P-Smad mediated transactivation); assay: BMP dependent luciferase reporter; type: cell-based; settings: HEK293 cells, in the presence of BMP4, increasing amounts
Pax5 = Pax5 (Homo sapiens, UniProt Q02548); assay: PRS4-Luc reporter activation by Pax5 in HEK293 cells; type: cell-based; settings: dose response
[5] = biological target: recombinant Pax2 paired domain (amino acids 1–170) / PRS oligo (Mus musculus, UniProt P32114); assay: Electrophoretic mobility shift assay; type: biochemical; settings: EMSA
kidney organ cultures = assay: Pax2 target gene expression in kidney organ cultures; design: species or system mouse; settings: kidney organ culture, 48 h
CMV-Luc = CMV-Luc counter-screen in HEK293 cells; type: cell-based; settings: increasing concentrations
[6] = system: RCC111, TOV112D and ES-2 cells; assay: Cell viability; type: cell-based; settings: 48 h, 12.5 and 25 µM, Pax2 positive cells

Chain of recombinant Pax2 paired domain (amino acids 1–170) / PRS oligo (P32114 1-170): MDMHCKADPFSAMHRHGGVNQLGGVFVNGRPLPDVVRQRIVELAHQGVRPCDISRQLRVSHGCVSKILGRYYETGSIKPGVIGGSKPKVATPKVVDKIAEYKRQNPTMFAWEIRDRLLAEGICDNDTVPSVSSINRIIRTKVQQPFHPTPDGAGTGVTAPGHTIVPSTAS
Chain of Pax5 (Q02548 whole entry, species assumed, the tested form may be a part): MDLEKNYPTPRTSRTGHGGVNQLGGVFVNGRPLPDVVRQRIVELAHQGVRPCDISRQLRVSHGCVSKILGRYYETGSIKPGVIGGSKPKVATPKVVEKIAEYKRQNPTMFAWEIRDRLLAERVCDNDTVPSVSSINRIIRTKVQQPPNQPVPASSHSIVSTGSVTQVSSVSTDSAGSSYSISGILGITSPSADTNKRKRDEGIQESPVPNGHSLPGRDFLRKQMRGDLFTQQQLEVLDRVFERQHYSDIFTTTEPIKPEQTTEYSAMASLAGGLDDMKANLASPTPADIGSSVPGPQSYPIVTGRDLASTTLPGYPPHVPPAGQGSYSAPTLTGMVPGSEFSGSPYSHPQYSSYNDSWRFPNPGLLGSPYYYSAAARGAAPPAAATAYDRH
Chain of Pax8 (Q06710 whole entry, species assumed): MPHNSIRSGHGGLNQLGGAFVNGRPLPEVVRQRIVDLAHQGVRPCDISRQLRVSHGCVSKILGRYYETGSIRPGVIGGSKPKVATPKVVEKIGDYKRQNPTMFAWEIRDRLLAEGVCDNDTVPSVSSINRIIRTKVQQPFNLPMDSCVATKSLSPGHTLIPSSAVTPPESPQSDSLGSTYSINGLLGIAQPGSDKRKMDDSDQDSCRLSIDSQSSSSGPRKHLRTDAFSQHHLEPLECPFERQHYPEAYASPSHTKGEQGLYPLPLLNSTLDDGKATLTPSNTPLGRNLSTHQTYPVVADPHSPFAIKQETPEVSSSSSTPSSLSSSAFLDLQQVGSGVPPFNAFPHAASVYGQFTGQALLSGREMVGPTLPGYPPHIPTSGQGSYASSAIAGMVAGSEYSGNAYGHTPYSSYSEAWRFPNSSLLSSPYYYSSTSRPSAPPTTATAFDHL
Chain of Pax2 (P32114 1-391 isoform P32114-2): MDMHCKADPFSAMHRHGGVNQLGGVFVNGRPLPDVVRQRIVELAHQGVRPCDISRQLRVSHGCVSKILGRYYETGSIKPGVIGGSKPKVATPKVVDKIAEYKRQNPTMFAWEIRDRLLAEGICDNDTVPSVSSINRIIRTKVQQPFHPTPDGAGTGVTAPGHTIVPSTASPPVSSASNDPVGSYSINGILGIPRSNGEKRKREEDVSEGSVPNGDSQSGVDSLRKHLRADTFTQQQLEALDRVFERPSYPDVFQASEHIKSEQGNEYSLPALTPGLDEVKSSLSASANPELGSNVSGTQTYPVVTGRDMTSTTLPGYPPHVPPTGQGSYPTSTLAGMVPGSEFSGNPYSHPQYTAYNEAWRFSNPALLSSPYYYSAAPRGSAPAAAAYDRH

With COc1ccccc1C(=O)Nc1ccc(C(=O)Nc2ccccc2C(=O)O)cc1 [EG1] the “Levels of phospho–histone H3 (P–H3)” value [1] was “decreased levels of P–H3”, the “Levels of phospho–histone H3 (P–H3)” value [2] was “unchanged” and the “Effect on branching morphogenesis” value (E11.5 lung rudiments) was “no change in branching morphogenesis”. The “Inhibition of Pax2 mediated expression of EGFP” value (Pax2) was “capable of inhibiting Pax2 mediated expression of EGFP”, the Cell viability [3] was “none of the Pax2 negative cells were affected” and the “Inhibition of PRS4-Luc activation by Pax8” value (Pax8) was “able to inhibit”. For the same compound, the “Inhibition of branching morphogenesis” value (E11.5 kidney rudiments) was “up to 75%”, the “Effect on BRE-Luc reporter activity” value [4] was “unaffected” and the “Inhibition of PRS4-Luc activation by Pax5” value (Pax5) was “able to inhibit”. The “Inhibition of Pax2-DNA binding” value ([5]; 10 µM) was “Significant inhibition”, the “Inhibition of Pax2-DNA binding” value ([5]; 100 µM) was “near complete inhibition” and the “Cited1 and HNF4a expression, qRT-PCR” value (kidney organ cultures) was “clear reduction”. For the same compound, the “Cited1 expression, whole mount in situ hybridization” value (kidney organ cultures) was “dramatic reduction in expression levels”, the “FoxD1, Msx1 and Twist2 (stromal genes) expression, qRT-PCR” value (kidney organ cultures) was “increased levels” and the “Inhibition of CMV-Luc in the counter-screen” value (CMV-Luc) was “no inhibitory effect”. The Cell viability [6] was “significant decrease in cell viability”.
